Tested on: 596521-263-R-J1-PDC complex spheroids, viability % of control
Test: Anticancer human tumor 596521-263-R-J1-PDC patient-derived soft tissue sarcoma cell line growth inhibition [GQUAD]
Details: for IC50: curve of first compound; for viability, T/C: stronger effect = lower value
Source text: DNA G-quadruplex Stabilizer Agents in Combinations in Complex Spheroids
A high-throughput screen of multi-cell type tumor spheroids was designed to identify active combinations of DNA G-quadruplex stabilizer agents and targeted small molecules. Complex spheroids include a stromal component modeled by human endothelial cells (HUVEC) and fibroblasts modeled by human mesenchymal stem cells (MSCs). The concentration ranges selected for each drug and investigational agent were based upon clinically achievable concentrations if the clinical Cmax of the agent was known.
Compounds. The drugs and investigational agents: pidnarulex (CX-5461; NSC782164), APTO-253 (NSC789042), BRACO-19 (NSC847499), peposertib (NSC802822), ceralasertib (NSC780249), elimusertib (NSC800525), camonsertib (NSC841442), AZD-1390 (NSC803789), olaparib (NSC753686), talazoparib (NSC767125), ART-558 (NSC835418), sotorasib (NSC818433), MRTX-1133 (NSC836407), SN-38 (NSC673596), topotecan (NSC609699), etoposide (NSC141540), doxorubicin (NSC123127), gemcitabine (NSC613327), 5-fluorouracil (NSC19893), paclitaxel (NSC125973), vemurafenib (NSC761431), panobinostat (NSC761190), R-306465 (JNJ-16241199; NSC773264), adavosertib (NSC754352), TP-3654 (NSC805149), carboplatin (NSC241240), KSQ-4279 (NSC840948), and staurosporine (NSC755774) were obtained from the National Cancer Institute (NCI) Developmental Therapeutics Program Chemical Repository (34). The FDA-approved anticancer drug set is available from the NCI Developmental Therapeutics Program. […] The stock solutions were prepared in dimethyl sulfoxide (DMSO, Sigma-Aldrich, St. Louis, MO, cat. D2650) at 800-fold the tested concentration and stored at -70 degrees C prior to their use. All drugs and investigational agents were tested over a range starting from a high concentration at or near the clinical Cmax and decreasing in half-log increments. If the clinical Cmax for an agent had not been determined, the highest concentration tested was 10 microM.
2.3 Cell Culture. All cells were maintained in an incubator at 37 degrees C and 5% CO2 with 95% humidity. The PDC lines were cultured according to standard operating procedures established by the NCI PDMR. All PDCs were thawed and cultured in Matrigel-coated flasks prepared with a working solution of 1X Ham's F-12 nutrient mix, without supplementation (Invitrogen, cat. 11765054), 100 U/mL penicillin-streptomycin (Invitrogen, cat. 15140122), and 2.5% Matrigel (Corning Inc., cat. 354248) for the first three passages. The 857933-349-R-J2-PDC line was cultured in 6C/Colon 1B media, which includes advanced DMEM/F-12 (Thermo Fisher Scientific, cat. 12634028), 10 mM HEPES (Thermo Fisher Scientific, cat. 15630080), 1X GlutaMAX supplement (Thermo Fisher Scientific, cat. 35050061), 0.1 mg/mL primocin (InvivoGen, cat. ant-pm-2), 10% defined fetal bovine serum, heat inactivated (HyClone Laboratories Inc., cat. SH30070.03HI), 50% L-WRN conditioned media (ATCC, cat. CRL-3276), 1.25 mM N-Acetyl-L-cysteine (Sigma-Aldrich, cat. A9165), 10 mM nicotinamide (Sigma-Aldrich, cat. N0636), 1X B-27 supplement (Thermo Fisher Scientific, cat. 17504044), 1X N-2 supplement (Thermo Fisher Scientific, cat. 17502048), 10 microM Y-27632 dihydrochloride (Tocris Bioscience, cat. 1254), and 50 ng/mL human EGF recombinant protein (Thermo Fisher Scientific, cat. PHG0311). The 485176-168-R4-J1-PDC line was cultured in Panc media, which includes all 6C/Colon 1B media components plus 100 ng/mL human FGF-10 (Thermo Fisher Scientific, cat. 100-26), 500 nM SB-431542 (Selleckchem, cat. S1067), and gastrin (Tocris, cat. 3006).
[…]

[1] = second compound 0.0316 µM, first compound 0.0316 µM
[2] = second compound 0.0316 µM, first compound 0.316 µM
[3] = second compound 0.1 µM, first compound 0.0316 µM
[4] = second compound 0.1 µM, first compound 0.316 µM
[5] = second compound 0.316 µM, first compound 0.0316 µM
[6] = second compound 0.316 µM, first compound 0.316 µM
[7] = second compound 1 µM, first compound 0.0316 µM
[8] = second compound 1 µM, first compound 0.316 µM
[9] = second compound 3.16 µM, first compound 0.0316 µM
[10] = second compound 3.16 µM, first compound 0.316 µM
[11] = second compound 10 µM, first compound 0.0316 µM
[12] = second compound 10 µM, first compound 0.316 µM
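Also: spheroids exposed to drugs for 7 days before viability reading.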

CC1COCCN1c1cc(C2(O)CC3CCC(C2)O3)c2cnn(-c3ccn[nH]3)c2n1 (centres undefined) + Cc1[nH]c2ccc(F)cc2c1-c1nc2c3cccnc3c3ncccc3c2[nH]1
IC50 (second compound 0.0316 µM): 280 nM | IC50 (second compound 0.1 µM): 267 nM | IC50 (second compound 0.316 µM): 207 nM | IC50 (second compound 1 µM): 327 nM | IC50 (second compound 3.16 µM): 233 nM | IC50 (second compound 10 µM): 131 nM | viability, T/C [1]: 68.8% | viability, T/C (second compound 0.0316 µM, first compound 0.1 µM): 56.8% | viability, T/C [2]: 52.6% | viability, T/C (second compound 0.0316 µM, first compound 1 µM): 32.8% | viability, T/C (second compound 0.0316 µM, first compound 3.16 µM): 23% | viability, T/C (second compound 0.0316 µM, first compound 10 µM): 12.4% | viability, T/C [3]: 77.5% | viability, T/C (second compound 0.1 µM, first compound 0.1 µM): 60.1% | viability, T/C [4]: 48.9% | viability, T/C (second compound 0.1 µM, first compound 1 µM): 35.1% | viability, T/C (second compound 0.1 µM, first compound 3.16 µM): 25.6% | viability, T/C (second compound 0.1 µM, first compound 10 µM): 14.6% | viability, T/C [5]: 64.8% | viability, T/C (second compound 0.316 µM, first compound 0.1 µM): 54.1% | viability, T/C [6]: 48.8% | viability, T/C (second compound 0.316 µM, first compound 1 µM): 34.2% | viability, T/C (second compound 0.316 µM, first compound 3.16 µM): 25.3% | viability, T/C (second compound 0.316 µM, first compound 10 µM): 13.1% | viability, T/C [7]: 72.4% | viability, T/C (second compound 1 µM, first compound 0.1 µM): 62.7% | viability, T/C [8]: 52% | viability, T/C (second compound 1 µM, first compound 1 µM): 33.8% | viability, T/C (second compound 1 µM, first compound 3.16 µM): 25.6% | viability, T/C (second compound 1 µM, first compound 10 µM): 16.1% | viability, T/C [9]: 63.9% | viability, T/C (second compound 3.16 µM, first compound 0.1 µM): 59.4% | viability, T/C [10]: 47% | viability, T/C (second compound 3.16 µM, first compound 1 µM): 32.2% | viability, T/C (second compound 3.16 µM, first compound 3.16 µM): 26% | viability, T/C (second compound 3.16 µM, first compound 10 µM): 14.9% | viability, T/C [11]: 54.4% | viability, T/C (second compound 10 µM, first compound 0.1 µM): 55% | viability, T/C [12]: 42.4% | viability, T/C (second compound 10 µM, first compound 1 µM): 27.6% | viability, T/C (second compound 10 µM, first compound 3.16 µM): 25.3% | viability, T/C (second compound 10 µM, first compound 10 µM): 14.2%

CC[C@@]1(O)C(=O)OCc2c1cc1n(c2=O)Cc2cc3c(CN(C)C)c(O)ccc3nc2-1 + Cc1[nH]c2ccc(F)cc2c1-c1nc2c3cccnc3c3ncccc3c2[nH]1
IC50 (second compound 0.0316 µM): > 316 nM | IC50 (second compound 0.1 µM): > 316 nM | IC50 (second compound 0.316 µM): 291 nM | IC50 (second compound 1 µM): > 316 nM | IC50 (second compound 3.16 µM): 277 nM | IC50 (second compound 10 µM): > 316 nM | viability, T/C (second compound 0.0316 µM, first compound 0.000999 µM): 98.3% | viability, T/C (second compound 0.0316 µM, first compound 0.00316 µM): 100% | viability, T/C (second compound 0.0316 µM, first compound 0.00999 µM): 84% | viability, T/C [1]: 69.5% | viability, T/C (second compound 0.0316 µM, first compound 0.0999 µM): 64.3% | viability, T/C [2]: 58.7% | viability, T/C (second compound 0.1 µM, first compound 0.000999 µM): 103% | viability, T/C (second compound 0.1 µM, first compound 0.00316 µM): 99.1% | viability, T/C (second compound 0.1 µM, first compound 0.00999 µM): 92.5% | viability, T/C [3]: 65.6% | viability, T/C (second compound 0.1 µM, first compound 0.0999 µM): 59.6% | viability, T/C [4]: 53.5% | viability, T/C (second compound 0.316 µM, first compound 0.000999 µM): 96.8% | viability, T/C (second compound 0.316 µM, first compound 0.00316 µM): 103% | viability, T/C (second compound 0.316 µM, first compound 0.00999 µM): 90.7% | viability, T/C [5]: 78.5% | viability, T/C (second compound 0.316 µM, first compound 0.0999 µM): 61% | viability, T/C [6]: 49% | viability, T/C (second compound 1 µM, first compound 0.000999 µM): 103% | viability, T/C (second compound 1 µM, first compound 0.00316 µM): 109% | viability, T/C (second compound 1 µM, first compound 0.00999 µM): 79.7% | viability, T/C [7]: 65.7% | viability, T/C (second compound 1 µM, first compound 0.0999 µM): 58% | viability, T/C [8]: 51.4% | viability, T/C (second compound 3.16 µM, first compound 0.000999 µM): 86.4% | viability, T/C (second compound 3.16 µM, first compound 0.00316 µM): 84.1% | viability, T/C (second compound 3.16 µM, first compound 0.00999 µM): 81.6% | viability, T/C [9]: 67.6% | viability, T/C (second compound 3.16 µM, first compound 0.0999 µM): 63.2% | viability, T/C [10]: 48.2% | viability, T/C (second compound 10 µM, first compound 0.000999 µM): 85.5% | viability, T/C (second compound 10 µM, first compound 0.00316 µM): 89.9% | viability, T/C (second compound 10 µM, first compound 0.00999 µM): 70.4% | viability, T/C [11]: 59.3% | viability, T/C (second compound 10 µM, first compound 0.0999 µM): 60.9% | viability, T/C [12]: 50.3%

Source: PubChem BioAssay AID2060500 (Molecular Pharmacology Branch, DTP, NCI, 2025)
